# Key:
# Assay type in all cases: cell-based, Human
# MCF7 cells [1] = assay: Extracellular flux analysis (ECAR and OCR, XF96)
# Procedure: Inhibition of mitochondrial fission by m-DIVI-1 or a derivative thereof also blocks the normal functioning of mitochondrial metabolism in CSCs. Indeed, it has been shown that a DRP1 mutant that inhibits mitochondrial fission increases glucose uptake and lactate production, and decreases ATP production. […] The extracellular acidification rate (ECAR) and the oxygen consumption rate (OCR) were measured using an XF96 Extracellular Flux Analyser, and FIGS. 5A, 5B, and 6A-6C show the data. Basal glycolysis, glycolytic capacity and glycolytic reserve were calculated after addition of glucose, oligomycin and 2-deoxyglucose (2DG) into the media. […] Thus, to measure basal respiration, ATP production, maximal respiration and spare respiratory capacity, oxygen consumption was also calculated after addition of oligomycin, FCCP and antimycin/rotenone into glucose-containing media. […] The OCR versus ECAR graph was also plotted to have an indication of the metabolic state of the cell. […] Thus, mDIVI-1-induced inhibition of mitochondrial fission functionally targets oxidative phosphorylation and also the glycolytic function of MCF7 cells, transforming them into cells with lower mitochondrial energetic needs.
# EXTRACELLULAR FLUX […] AND BRADFORD ASSAY: Extracellular acidification rate (ECAR) and oxygen consumption rate (OCR) were measured in a XF96 Extracellular Flux Analyzer (Seahorse Biosciences). Briefly, 1×10^4 MCF7 cells per well were seeded in XF96 plates and incubated with complete medium. When cells were attached, mDIVI-1 and vehicle treatments were added. Six replicates were run for each condition. After 48 hours, un-buffered DMEM XF medium supplemented with 2 mM glutamine (pH 7.4) was added to the cells, and placed in a 37° C. CO2-free incubator for 1 hour. Ten mM glucose, 1 μM oligomycin and 100 mM 2-deoxyglucose (2-DG) were injected into the media at different time points and ECAR was measured. Likewise, ECAR and OCR were quantified using un-buffered DMEM XF medium supplemented with 2 mM glutamine, 2 mM sodium pyruvate and 10 mM glucose. One μM oligomycin, 0.9 μM FCCP and 1 μM rotenone and antimycin A were injected into the media at different time points and OCR and ECAR were measured. Cells were finally lysed with 0.1 M NaOH and protein lysate was subsequently stained with Quick Start™ Bradford 1× Dye Reagent (500-0205, BioRad) to normalise results. All parameters were calculated according to manufacturer.
# MCF7 cells [2] = assay: Mitochondrial staining with Mitotracker Deep Red (microscopy); conditions: 10 μM, 2- and 5-day treatment
# Excerpt: In order to assess whether the inhibition of DRP1 was actually being translated into a reduction in mitochondrial fission, the inventors stained the mitochondria of MCF7 cells with Mitotracker Deep Red, which is a marker of mitochondrial mass. […] The original images are black background with shades of red over the cells, whereas the images in FIG. 3 have been color-inverted and generated in grey scale. Mitochondrial mass was also quantified by flow cytometry. FIGS. 4A-4C show results of mitochondrial mass quantification. In FIG. 4A, Mitotracker Deep Red mean intensity relative to vehicle intensity is shown for 2-day and 5-day treatments.
# MITOCHONDRIAL STAINING: One hundred thousand MCF7 cells were seeded onto coverslips in 12-well plates. When cells were attached, mDIVI-1 and vehicle treatments were performed in triplicate. After 2 days and 5 days, mitochondria were labeled by incubating cells for 15 min at 37° C. with 25 nM of MitoTracker DeepRed (M22426, Invitrogen) diluted in PBS (D8662, Sigma). Then, cells were washed with PBS, fixed in 2% paraformaldehyde (28908, Thermo Scientific) in PBS for 30 minutes at room temperature and mounted with ProLong® Gold Antifade Mountant reagent with DAPI (P36935, Invitrogen, Inc.). […]
# MCF7 cells [3] = assay: Scratch assay (wound closure, migration); conditions: 48 hours, vs vehicle
# Excerpt: It is though that CSCs are responsible for metastatic spread and growth. Emerging evidence highlights the role of mitochondrial dynamics in tumor cell dissemination. […] In migrating cancer cells mitochondria accumulate at the leading edge where processes requiring high energy occur, such as formation of focal adhesions. Fission seems to be a prerequisite for that efficient relocation of mitochondria. Indeed, upregulation/activation of DRP1 is associated with a migratory and invasive phenotype in cancer. […] Through a scratch assay, were cells were cultured in the presence of either vehicle or mDIVI-1. The scratch was monitored over time and the percentage of wound closure was measured as described previously.
# SCRATCH ASSAY: A hundred thousand MCF7 cells per well were seeded in 12-well plates. When cells were attached, a horizontal scratch was performed using the tip of a pipette. Immediately after, the media was removed and either fresh vehicle-containing media or mDIVI-1-containing media were added to the cells for 48 hours. Four replicates were used for each condition. […] The wound closure was monitored by taking pictures of each well every 4 hours. At the end of the treatment, pictures of the wells at 0 and 48 hours were analysed using ImageJ software to calculate wound closure according to the following formula: Percentage wound closure=[(wound area0 h−wound area48 h)/wound area0 h]×100.
smiles,measurement,setting,value
"COc1cc(-n2c(S)nc3ccccc3c2=O)c(Cl)cc1Cl [mDIVI-1, 3-(2,4-Dichloro-5-methoxyphenyl)-2-sulfanyl-4(3H)-quinazolinone]",basal glycolysis (ECAR),MCF7 cells [1]; 48 hours,did not have a significant effect
same,glycolytic capacity (ECAR),MCF7 cells [1]; 48 hours,reduced
same,glycolytic reserve (ECAR),MCF7 cells [1]; 48 hours,reduced
same,oxygen consumption linked to ATP production,MCF7 cells [1]; 48 hours,significantly reduced
same,oxygen consumption linked to basal respiration,MCF7 cells [1]; 48 hours,significantly reduced
same,spare respiratory capacity,"MCF7 cells [1]; 48 hours, all mDIVI-1 concentrations",slightly increased
same,oxygen consumption linked to maximal respiration,"MCF7 cells [1]; 48 hours, to a lesser extent, at higher concentrations",significantly reduced
same,OCR/ECAR ratio,MCF7 cells [1]; compared to vehicle,decreased dose-dependently
same,mitochondrial morphology,MCF7 cells [2],more interconnected mitochondria
same,reduction of percentage of wound closure,MCF7 cells [3]; 10 μM,14%
same,reduction of percentage of wound closure,MCF7 cells [3]; 50 μM,44%

# Source: patent US11559527B2 (priority 2017, dated 2023)
